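The compound was tested at five concentrations on cells cultured in 96-well plates, with a 48-hour exposure period. TGI: concentration producing complete growth inhibition.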
How the values were obtained:
Test in all cases: NCI tumour cell line growth inhibition, 48 h
[1] = tested on: 786-0 renal
[2] = tested on: A498 renal
[3] = tested on: A549 NSCLC
[4] = tested on: ACHN renal
[5] = tested on: CAKI-1 renal
[6] = tested on: CCRF-CEM leukemia
[7] = tested on: COLO 205 colon
[8] = tested on: DLD-1 colon
[9] = tested on: DMS 114 small cell lung
[10] = tested on: DMS 273 small cell lung
[11] = tested on: EKVX NSCLC
[12] = tested on: HCC-2998 colon
[13] = tested on: HCT-116 colon
[14] = tested on: HCT-15 colon
[15] = tested on: HL-60(TB) leukemia
[16] = tested on: HOP-62 NSCLC
[17] = tested on: HT29 colon
[18] = tested on: IGROV1 ovarian
[19] = tested on: K-562 leukemia
[20] = tested on: KM12 colon
[21] = tested on: KM20L2 colon
[22] = tested on: LOX IMVI melanoma
[23] = tested on: LXFL 529 NSCLC
[24] = tested on: M14 melanoma
[25] = tested on: M19-MEL melanoma
[26] = tested on: MALME-3M melanoma
[27] = tested on: MOLT-4 leukemia
[28] = tested on: NCI-H226 lung
[29] = tested on: NCI-H23 lung
[30] = tested on: NCI-H460 lung
[31] = tested on: NCI-H522 lung
[32] = tested on: OVCAR-3 ovarian
[33] = tested on: OVCAR-4 ovarian
[34] = tested on: OVCAR-5 ovarian
[35] = tested on: OVCAR-8 ovarian
[36] = tested on: RPMI-8226 leukemia
[37] = tested on: RXF 393 renal
[38] = tested on: RXF-631 renal
[39] = tested on: SF-268 CNS
[40] = tested on: SF-295 CNS
[41] = tested on: SF-539 CNS
[42] = tested on: SK-MEL-2 melanoma
[43] = tested on: SK-OV-3 ovarian
[44] = tested on: SN12C renal
[45] = tested on: SNB-19 CNS
[46] = tested on: SNB-78 CNS
[47] = tested on: SR leukemia
[48] = tested on: SW-620 colon
[49] = tested on: TK-10 renal
[50] = tested on: U251 CNS
[51] = tested on: UACC-257 melanoma
[52] = tested on: UACC-62 melanoma
[53] = tested on: UO-31 renal

Measured: TGI

Cc1cc(Br)cc(C)c1NC(=O)C(=O)C(C(=O)c1ccc(Cl)c(Cl)c1)C1OC(=O)c2ccccc21 (stereo not drawn)
> 100 µM: [1] | [2] | [3] | [4] | [5] | [6] | [7] | [9] | [10] | [11] | [12] | [13] | [14] | [15] | [16] | [17] | [18] | [19] | [20] | [21] | [22] | [23] | [24] | [25] | [26] | [27] | [28] | [29] | [30] | [31] | [32] | [33] | [34] | [35] | [36] | [37] | [38] | [39] | [40] | [41] | [42] | [43] | [44] | [45] | [46] | [47] | [48] | [49] | [50] | [51] | [52] | [53]
51.2 µM: [8]

Source: PubChem BioAssay (NCI)
